Like-named read-outs stand apart in the source and are kept apart here.
Key:
human orexin-2 receptor = human orexin-2 receptor (Homo sapiens (Human), UniProt O43614); test: In vitro assay: intracellular calcium measurements (FLIPR), antagonistic activity; assay type: cell-based; settings: CHO cells, 3 nM orexin-A, marked values are geometric means of n = 2-6, read-out: IC50 OX2
human orexin-1 receptor = human orexin-1 receptor (Homo sapiens (Human), UniProt O43613); test: as above; assay type: cell-based; settings: CHO cells, 3 nM orexin-A, marked values are geometric means of n = 2-6, read-out: IC50 OX1
Chain of human orexin-1 receptor (O43613 whole entry): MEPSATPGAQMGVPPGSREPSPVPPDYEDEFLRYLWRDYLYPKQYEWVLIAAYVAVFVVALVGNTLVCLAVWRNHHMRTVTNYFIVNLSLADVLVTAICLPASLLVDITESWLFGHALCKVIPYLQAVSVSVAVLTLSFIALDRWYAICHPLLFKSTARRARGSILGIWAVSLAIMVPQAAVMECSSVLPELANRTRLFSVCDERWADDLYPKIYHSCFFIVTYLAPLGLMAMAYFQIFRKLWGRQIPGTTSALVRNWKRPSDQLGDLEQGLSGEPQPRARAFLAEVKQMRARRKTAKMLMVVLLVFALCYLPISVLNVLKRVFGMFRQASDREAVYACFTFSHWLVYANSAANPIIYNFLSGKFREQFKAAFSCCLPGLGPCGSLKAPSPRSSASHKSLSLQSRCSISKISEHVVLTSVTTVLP

[1] = compound incubation time of 10 min

Chain of human orexin-2 receptor (O43614 whole entry): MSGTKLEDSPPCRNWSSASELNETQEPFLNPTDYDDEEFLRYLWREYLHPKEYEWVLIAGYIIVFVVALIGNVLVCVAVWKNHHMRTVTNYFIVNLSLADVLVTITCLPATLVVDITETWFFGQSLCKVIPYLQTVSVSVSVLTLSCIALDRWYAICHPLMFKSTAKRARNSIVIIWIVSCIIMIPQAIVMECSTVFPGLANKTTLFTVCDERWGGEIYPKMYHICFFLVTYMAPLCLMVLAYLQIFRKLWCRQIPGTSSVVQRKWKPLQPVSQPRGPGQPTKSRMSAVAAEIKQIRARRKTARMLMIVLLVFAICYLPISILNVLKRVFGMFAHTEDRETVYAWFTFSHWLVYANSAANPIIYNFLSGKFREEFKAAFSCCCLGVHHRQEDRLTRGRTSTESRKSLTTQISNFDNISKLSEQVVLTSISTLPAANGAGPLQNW

Row | Structure (SMILES) | IC50 (human orexin-2 receptor; compound incubation 120 min) [nM] | IC50 (human orexin-1 receptor; compound incubation 120 min) [nM] | IC50 (human orexin-2 receptor; [1]) [nM] | IC50 (human orexin-1 receptor; [1]) [nM]
1 | COc1cccc(OC)c1C1CC(C)C(=O)N1Cc1cccc(-c2ccccc2)c1 (centres unmarked) [Example 122, 1-([1,1′-biphenyl]-3-ylmethyl)-5-(2,6-dimethoxyphenyl)-3-methylpyrrolidin-2-one] | 70 | 18 | – | –
2 | COc1cccc(OC)c1C1CCCC(=O)N1Cc1csc(-c2ccccc2)n1 (centres unmarked) [Example 35, 6-(2,6-dimethoxyphenyl)-1-((2-phenylthiazol-4-yl)methyl)piperidin-2-one] | 5 | 28 | – | –
3 | COc1cncc(OC)c1C1CCCC(=O)N1Cc1cccc(-c2ccccn2)c1 (centres unmarked) [Example 63, 6-(3,5-dimethoxypyridin-4-yl)-1-(3-(pyridin-2-yl)benzyl)piperidin-2-one] | 90 | 135 | – | –
4 | CCOc1cccc(F)c1C1CC(C)C(=O)N1Cc1ccnc(-c2nc(C)cs2)c1 (centres unmarked) [Example 386, 5-(2-ethoxy-6-fluorophenyl)-3-methyl-1-((2-(4-methylthiazol-2-yl)pyridin-4-yl)methyl)pyrrolidin-2-one] | 2 | 39 | – | –
5 | COc1cccc(OC)c1C1CCCCC(=O)N1Cc1cccc(-c2nccs2)c1 (centres unmarked) [Example 85, 7-(2,6-dimethoxyphenyl)-1-(3-(thiazol-2-yl)benzyl)azepan-2-one] | 3 | 2 | – | –
6 | COc1cccc(F)c1[C@@H]1C[C@@H](Cl)C(=O)N1Cc1ccc(OC(F)(F)F)cc1 (racemic) [Example 324, rac-(3R*,5S*)-3-chloro-5-(2-fluoro-6-methoxyphenyl)-1-(4-(trifluoromethoxy)benzyl)pyrrolidin-2-one] | 1210 | 968 | – | –
7 | COc1ccc(Cl)c(OC)c1[C@@H]1C[C@H](F)C(=O)N1Cc1ccc(OC(F)(F)F)cc1 (racemic) [Example 319, rac-(3S*,5S*)-5-(3-chloro-2,6-dimethoxyphenyl)-3-fluoro-1-(4-(trifluoromethoxy)benzyl)pyrrolidin-2-one] | 1020 | 971 | – | –
8 | CCC(c1ccc(OC(F)(F)F)cc1)N1C(=O)C(C)CC1c1c(OC)cccc1OC (centres unmarked) [Example 203, 5-(2,6-dimethoxyphenyl)-3-methyl-1-(1-(4-(trifluoromethoxy)phenyl)propyl)pyrrolidin-2-one] | – | – | 1170 | 451
9 | COc1cccc(OC)c1C1CC(C)C(=O)N1Cc1ccc2c(c1)c1ccccc1n2C (centres unmarked) [Example 387, 5-(2,6-dimethoxyphenyl)-3-methyl-1-((9-methyl-9H-carbazol-3-yl)methyl)pyrrolidin-2-one] | 111 | 100 | – | –
10 | COc1cccc(OC)c1C1CC(C)C(=O)N1Cc1cccc(OC(C)C)c1 (centres unmarked) [Example 423, 5-(2,6-dimethoxyphenyl)-1-(3-isopropoxybenzyl)-3-methylpyrrolidin-2-one] | 93 | 101 | – | –
11 | COc1cccc(OC)c1C1CCC(=O)N1Cc1cccc(-c2ccccn2)c1 (centres unmarked) [Example 119, 5-(2,6-dimethoxyphenyl)-1-(3-(pyridin-2-yl)benzyl)pyrrolidin-2-one] | 56 | 57 | – | –
12 | COc1cccc(OC)c1C1CCCCC(=O)N1Cc1ccc2ccccc2n1 (centres unmarked) [Example 79, 7-(2,6-dimethoxyphenyl)-1-(quinolin-2-ylmethyl)azepan-2-one] | 82 | 21 | – | –
13 | COc1cccc(OC)c1C1CCCC(=O)N1Cc1csc(Oc2ccccc2)n1 (centres unmarked) [Example 278, 6-(2,6-dimethoxyphenyl)-1-((2-phenoxythiazol-4-yl)methyl)piperidin-2-one] | 172 | 250 | – | –
14 | COc1cccc(OC)c1C1CCCC(=O)N1Cc1cccc(Oc2ccccc2)c1 (centres unmarked) [Example 179, 6-(2,6-dimethoxyphenyl)-1-(3-phenoxybenzyl)piperidin-2-one] | – | – | 42 | 225
15 | COc1cccc(Cl)c1[C@@H]1C[C@H](Cl)C(=O)N1Cc1ccc(OC(F)(F)F)cc1 (racemic) [Example 306, rac-(3S*,5S*)-3-chloro-5-(2-chloro-6-methoxyphenyl)-1-(4-(trifluoromethoxy)benzyl)pyrrolidin-2-one] | 108 | 740 | – | –
16 | COc1cccc(OC)c1[C@@H]1C[C@H](OC)C(=O)N1Cc1ccc(OC(F)(F)F)cc1 (racemic) [Example 254, rac-(3S*,5S*)-5-(2,6-dimethoxyphenyl)-3-methoxy-1-(4-(trifluoromethoxy)benzyl)pyrrolidin-2-one] | – | – | 168 | 191
17 | COc1cccc(OC)c1C1CCCCC(=O)N1Cc1cccc(N2CCCCC2)c1 (centres unmarked) [Example 88, 7-(2,6-dimethoxyphenyl)-1-(3-(piperidin-1-yl)benzyl)azepan-2-one] | 58 | 12 | – | –
18 | COc1ccnc(OC)c1C1CCCC(=O)N1Cc1cccc(-c2nccs2)c1 (centres unmarked) [Example 53, 6-(2,4-dimethoxypyridin-3-yl)-1-(3-(thiazol-2-yl)benzyl)piperidin-2-one] | 22 | 33 | – | –
19 | COc1cccc(OC)c1C1CCCC(=O)N1Cc1cccc(N2CCCC2)c1 (centres unmarked) [Example 24, 6-(2,6-dimethoxyphenyl)-1-(3-(pyrrolidin-1-yl)benzyl)piperidin-2-one] | 31 | 22 | – | –

Row | Structure (SMILES) | IC50 (human orexin-2 receptor; compound incubation 120 min) [nM] | IC50 (human orexin-1 receptor; compound incubation 120 min) [nM] | IC50 (human orexin-2 receptor; [1]) [nM] | IC50 (human orexin-1 receptor; [1]) [nM]
20 | COc1cccc(OC)c1C1CCC(=O)N1Cc1nc2ccccc2s1 (centres unmarked) [Example 128, 1-(benzo[d]thiazol-2-ylmethyl)-5-(2,6-dimethoxyphenyl)pyrrolidin-2-one] | 2050 | 3880 | – | –
21 | COc1cccc(OC)c1C1CCC(=O)N1Cc1ccc(OC(F)(F)F)cc1 (centres unmarked) [Example 196, 5-(2,6-dimethoxyphenyl)-1-(4-(trifluoromethoxy)benzyl)pyrrolidin-2-one] | – | – | 158 | 724
22 | COc1cccc(OC)c1C1CCCCC(=O)N1Cc1ccc(F)c(-c2ccccn2)c1 (centres unmarked) [Example 107, 7-(2,6-dimethoxyphenyl)-1-(4-fluoro-3-(pyridin-2-yl)benzyl)azepan-2-one] | 22 | 4 | – | –
23 | COc1cccc(OC)c1C1CCCCC(=O)N1Cc1ccc2nc(C)sc2c1 (centres unmarked) [Example 105, 7-(2,6-dimethoxyphenyl)-1-((2-methylbenzo[d]thiazol-6-yl)methyl)azepan-2-one] | 258 | 155 | – | –
24 | CCOc1cccc(F)c1C1CC(C)C(=O)N1Cc1ccnc(-n2cccn2)c1 (centres unmarked) [Example 381, 1-((2-(1H-pyrazol-1-yl)pyridin-4-yl)methyl)-5-(2-ethoxy-6-fluorophenyl)-3-methylpyrrolidin-2-one] | 9 | 418 | – | –
25 | COc1cccc(OC)c1C1CN(C)CC(=O)N1Cc1ccc(OC(F)(F)F)cc1 (centres unmarked) [Example 268, 6-(2,6-dimethoxyphenyl)-4-methyl-1-(4-(trifluoromethoxy)benzyl)piperazin-2-one] | – | – | 410 | 1270
26 | COc1cccc(OC)c1C1CCC(=O)N1Cc1cccc(-c2noc(C)n2)c1 (centres unmarked) [Example 136, 5-(2,6-dimethoxyphenyl)-1-(3-(5-methyl-1,2,4-oxadiazol-3-yl)benzyl)pyrrolidin-2-one] | 547 | 219 | – | –
27 | O=C1CCCCC(c2ccccc2-c2ccncc2)N1Cc1cccc(-c2nccs2)c1 (centres unmarked) [Example 450, 7-(2-(pyridin-4-yl)phenyl)-1-(3-(thiazol-2-yl)benzyl)azepan-2-one] | 15 | 561 | – | –
28 | COc1cccc(OC)c1C1CC(C)C(=O)N1Cc1cc(Cl)cc(-c2ccccn2)c1 (centres unmarked) [Example 152, 1-(3-chloro-5-(pyridin-2-yl)benzyl)-5-(2,6-dimethoxyphenyl)-3-methylpyrrolidin-2-one] | 270 | 74 | – | –
29 | COc1cccc(OC)c1C1CCCCC(=O)N1Cc1cccc(-c2ccncc2)c1 (centres unmarked) [Example 96, 7-(2,6-dimethoxyphenyl)-1-(3-(pyridin-4-yl)benzyl)azepan-2-one] | 85 | 16 | – | –
30 | COc1cccc(OC)c1C1CCC(=O)N1Cc1cccc(-c2ccccc2)c1 (centres unmarked) [Example 113, 1-([1,1′-biphenyl]-3-ylmethyl)-5-(2,6-dimethoxyphenyl)pyrrolidin-2-one] | 34 | 29 | – | –
31 | COc1cccc(OC)c1C1CCCC(=O)N1Cc1ccc2c(ccn2C)c1 (centres unmarked) [Example 241, 6-(2,6-dimethoxyphenyl)-1-((1-methyl-1H-indol-5-yl)methyl)piperidin-2-one] | – | – | 275 | 426
32 | COc1cccc(Cl)c1[C@@H]1C[C@H](F)C(=O)N1Cc1ccc(OC(F)(F)F)cc1 (racemic) [Example 302, rac-(3S*,5S*)-5-(2-chloro-6-methoxyphenyl)-3-fluoro-1-(4-(trifluoromethoxy)benzyl)pyrrolidin-2-one] | 103 | 1380 | – | –
33 | COc1cccc(OC)c1C1CCCC(=O)N1Cc1ccc2c(c1)CCCN2 (centres unmarked) [Example 240, 6-(2,6-dimethoxyphenyl)-1-((1,2,3,4-tetrahydroquinolin-6-yl)methyl)piperidin-2-one] | – | – | 596 | 2040
34 | COc1cccc(OC)c1C1CCCCC(=O)N1Cc1cccc(-c2csc(C)n2)c1 (centres unmarked) [Example 91, 7-(2,6-dimethoxyphenyl)-1-(3-(2-methylthiazol-4-yl)benzyl)azepan-2-one] | 3 | 1 | – | –
35 | COc1cccc(OC)c1C1CCCC(=O)N1Cc1cc2ccccc2s1 (centres unmarked) [Example 181, 1-(benzo[b]thiophen-2-ylmethyl)-6-(2,6-dimethoxyphenyl)piperidin-2-one] | – | – | 252 | 805
36 | COc1cccc(OC)c1C1CC(C)C(=O)N1Cc1cccc(OCCF)c1 (centres unmarked) [Example 421, 5-(2,6-dimethoxyphenyl)-1-(3-(2-fluoroethoxy)benzyl)-3-methylpyrrolidin-2-one] | 237 | 498 | – | –
37 | CC(C)Oc1cccc(F)c1C1CC(F)(F)C(=O)N1Cc1ccc(OC(F)(F)F)cc1 (centres unmarked) [Example 411, 3,3-difluoro-5-(2-fluoro-6-isopropoxyphenyl)-1-(4-(trifluoromethoxy)benzyl)pyrrolidin-2-one] | 98 | 1490 | – | –

— patent publication US9242970B2 (ACTELION PHARMACEUTICALS LTD., priority 2010, dated 2016)
